Assay results from patent US9173935B2, “Phospholipid drug analogs” (Telormedix SA, priority 2010, dated 2015).
Read-outs that look alike come from different tables or passages of the source.

Assays:
[1] = Solubility, method of European Pharmacopoeia 6.0; format: physicochemical
Experimental: The method reported in the European Pharmacopoeia 6.0 was used.
Batch CH730/16/8g was tested according to the method described in E. Ph: DMSO was added in 0.1 mL portions to 103.7 mg of product and the suspension was shaken with a Vortex instrument for 3 min after each addition. […] The batches CH730/16/8c, CH730/16/8g and CH730/23/8e were then tested stirring each suspension for a longer time; 100 mg of each batch dissolved completely in 0.2 mL of DMSO after stirring for 30 minutes.

[2] = Storage stability by HPLC (solid or chloroform solution; temperature, light); format: physicochemical; settings: room temperature, natural light
Experimental: At this point, a stability study was conducted on batch CH730/16/8g.
The samples were analyzed at t=0 and after 20 days.

[3] = test system: PBMCs; experiment: IL-6 and TNF-alpha secretion in PBMCs from three donors (ELISA); format: cell-based, human; settings: read-out: EC50 values, IL-6 secretion
Experimental: EC50 values were determined for control and each drug candidate for IL-6 and TNF-alpha secretion. […] The cells were treated with TLR7 agonists for 24 hours in 7 doses. The conditioned media was removed for ELISA analyses for IL-6 and TNF-alpha, and cell survival determined by the XTT method according to the protocol from the supplier. […] Concentrations of IL-6 and TNF-alpha were determined by ELISA from R&D Systems using the Microsoft Excel Software. The results were analyzed in Graph Pad Prism in order to prepare dose-response curves, and for determination of EC50 values.

[4] = test system: human PBMCs; experiment: IL-6 secretion in human PBMCs, two batches of Compound A and SC12; format: cell-based; settings: 24 h, 4 doses
Experimental: PBMCs were purified from two donors and plated into 96 well plates at 2×10^5 cells/well in RPMI media including human 2% heat inactivated AB serum, glutamine, Pen-strep and R-mercapto-ethanol. The cells were treated with TLR7 agonists for 24 h in 4 doses. The conditioned media was removed for ELISA analyses for IL-6, and the EC50 value determined for each compound and each batch.
All compounds were tested in four concentrations (10-1-0.1-0.01 micromolar).
Concentrations of IL-6 were determined by ELISA from R&D Systems using the Microsoft Excel software. The results were analyzed in Graph Pad Prism in order to prepare dose-response curves, and for determination of EC50 values.

[5] = Plasma stability, first experiment, rat plasma; format: in vitro ADME
Experimental: (§1) A 10 μl of MeOH was added to improve solubility. […] The supernatant fractions were analyzed by LC/MS/MS. […] Percent loss of substrate in incubations was determined to estimate the in vitro half life of the test compound.

[6] = Plasma stability and metabolic profiling, first experiment, rabbit plasma; format: in vitro ADME
Experimental: as §1, with “compound. […] Assignment of the structures was done by comparison of the MS/MS analysis of the spectra with the parent spectrum.” for “compound.”

[7] = Plasma stability, first experiment, minipig plasma; format: in vitro ADME
Experimental: as §1

[8] = Plasma stability and metabolic profiling, first experiment, human plasma; format: in vitro ADME
Experimental: as §1, with “compound. […] Assignment of the structures was done by comparison of the MS/MS analysis of the spectra with the parent spectrum.” for “compound.”

[9] = Plasma stability, second experiment, human plasma; settings: human, plasma
Experimental: Second experiment: Test compounds (5 mM in DMSO) were diluted at the final concentration of 250 μM with ACN-MeOH 1:1.
Human plasma (1.180 ml) was spiked with 20 μl of 250 μM solution of the compound (4.16 μM final concentration) and aliquots of 50 μl volume were taken at 0, 15, 30, 60, 120 min and 5 hrs, and immediately quenched with 200 μl of a solution of Verapamil 250 ng/ml (internal standard, I.S.) in ACN:MeOH 95:5. Samples were then centrifuged for 20 min at 3000 rpm at 10° C. and analyzed as reported below. […] The supernatant fractions were analyzed by LC/MS/MS. Zero-time incubations were used as 100% values.
Stability was calculated as percentage remaining of the area ratio compound/I.S. at each time point vs. area ratio compound/I.S. at time 0 min.

[10] = test system: recombinant protein antigens from Plasmodium falciparum and Mycobacterium ulcerans; experiment: Pilot immunization study with adjuvanted protein antigens; format: in vivo, mice; settings: three s.c. immunizations, 10 nMol adjuvant
Experimental: A pilot immunization study was conducted using Compound A and SC12 adjuvanted protein antigens. The immunization experiments were performed with two recombinant proteins expressed in E. coli. One antigen was derived from the malaria parasite Plasmodium falciparum and the other one from Mycobacterium ulcerans, which cause the ulcerative skin disease Buruli ulcer.

[11] = test system: RAW.264 cells; experiment: Intracellular uptake in RAW.264 cells (LC-MS); format: cell-based; settings: 10 microM
Experimental: 5×10^6 RAW.264 cells were adhered overnight in 10 cm tissue culture dishes. […] […] Supernatant (2 ml) and cells (pellets) were collected by trypsinization and frozen at […] for subsequent analysis by LC-MS.

CCCCCCCC/C=C\CCCCCCCC(=O)OCC(COP(=O)(O)OCCNC(=O)c1ccc(Cn2c(=O)[nH]c3c(N)nc(OCCOC)nc32)cc1)OC(=O)CCCCCCC/C=C\CCCCCCCC (stereo not shown) [Compound A, 2-(4-((6-amino-2-(2-methoxyethoxy)-8-oxo-7H-purin-9(8H)-yl)methyl)benzamido)ethyl 2,3-bis(oleoyloxy)propyl phosphate]
Solubility in DMSO [1]: soluble
Solubility in acetonitrile [1]: not soluble
Solubility in water [1]: not soluble
Purity (HPLC) ([2]; retest 12 Jun. 2009 (test 20 May 2009)): Purity: 67.2%
Purity (HPLC) ([2]; retest 16 Jun. 2009 (test 10 Jun. 2009)): Purity: 44.8%
Purity (HPLC) ([2]; retest 17 Jun. 2009 (test 20 May 2009)): Purity: 58.9%
Purity (HPLC) ([2]; retest 18 Jun. 2009 (test 11 Jun. 2009)): Purity: 71.5%
Purity (HPLC) ([2]; test date 10 Jun. 2009): Purity: 57.5%
Purity (HPLC) ([2]; test date 11 Jun. 2009): Purity: 81.4%
Purity (HPLC) ([2]; test date 20 May 2009): Purity: 89.6%
EC50 ([3]; D1, first experiments on three donors): 460 nM
EC50 ([3]; D2, first experiments on three donors): 740 nM
EC50 ([3]; D3, first experiments on three donors): 255 nM
EC50 ([4]; Donor 1, listed as Compound A new 20289): 721 nM
EC50 ([4]; Donor 1, listed as Compound A old Ch730/25/8): 734 nM
EC50 ([4]; Donor 2, listed as Compound A new 20289): 521 nM
EC50 ([4]; Donor 2, listed as Compound A old Ch730/25/8): 392 nM
Plasma stability classification [5]: unstable
% Remaining ([5]; 0 min): 100%
% Remaining ([5]; 15 min): 73.8 ± 4.5%
% Remaining ([5]; 30 min): 67.1 ± 8.8%
% Remaining ([5]; 60 min): 25.2 ± 0.5%
% Remaining ([5]; 120 min): 21.4 ± 1.9%
% Remaining ([5]; 300 min): 15.3 ± 1.0%
Plasma stability classification [6]: unstable
% Remaining ([6]; 0 min): 100%
Metabolites found ([6]; 30 and 120 min, 50 μM): Three metabolites
% Remaining ([6]; 15 min): 38.7 ± 3.4%
% Remaining ([6]; 30 min): 10.2 ± 1.0%
% Remaining ([6]; 60 min): 7.4 ± 0.1%
% Remaining ([6]; 120 min): 4.4 ± 0.7%
% Remaining ([6]; 300 min): 1.9 ± 0.1%
Plasma stability classification [7]: unstable
% Remaining ([7]; 0 min): 100%
% Remaining ([7]; 15 min): 102.4 ± 3.3%
% Remaining ([7]; 30 min): 73.3 ± 5.0%
% Remaining ([7]; 60 min): 78.6 ± 2.9%
% Remaining ([7]; 120 min): 33.7 ± 2.3%
% Remaining ([7]; 300 min): 10.8 ± 0.3%
Metabolites found ([8]; 60 and 300 min, 50 μM): two of them
Plasma stability classification ([8]; first experiment): unstable
% Remaining ([8]; first experiment, 0 min): 100%
% Remaining ([8]; first experiment, 15 min): 99.7 (*) %
% Remaining ([8]; first experiment, 30 min): 40.4 ± 15.5%
% Remaining ([8]; first experiment, 60 min): 36.1 ± 7.6%
% Remaining ([8]; first experiment, 120 min): 17.4 ± 2.6%
% Remaining ([8]; first experiment, 300 min): 7.8 ± 3.3%
% Remaining ([9]; 0 h): 100%
% Remaining ([9]; 0.25 h): 100.6 ± 14.5%
% Remaining ([9]; 0.5 h): 90.3 ± 13.3%
% Remaining ([9]; 2 h): 69.8 ± 16.8%
Local side effects (swelling, ulcerations) [10]: No local side effects
Intracellular Concentration ([11]; incubation 1 hours): 5.50 % of total
Intracellular Concentration ([11]; incubation 6 hours): 4.27 % of total
Intracellular Concentration ([11]; incubation 16 hours): 1.53 % of total

COc1cc(N)c(Cl)cc1C(=O)OCCN1CCCCC1 [Compound M7319, 2-Piperidinoethyl 4-amino-5-chloro-2-methoxybenzoate, reference compound]
% Remaining ([9]; 0 h, 4.16 μM): 100%
% Remaining ([9]; 1 h, 4.16 μM): 23.3 ± 1.4%
% Remaining ([9]; 5 h, 4.16 μM): 0.01 ± 0.01%
